Test results as given in BindingDB's records for doi:10.3109/14756366.2012.742517 (Seoul National University, 2014).

target: T1, Pancreatic triacylglycerol lipase (Sus scrofa, UniProt P00591); assay: In Vitro Pancreatic Lipase Assay; settings: pH 7.4; 37 °C
T1 sequence (P00591 whole entry): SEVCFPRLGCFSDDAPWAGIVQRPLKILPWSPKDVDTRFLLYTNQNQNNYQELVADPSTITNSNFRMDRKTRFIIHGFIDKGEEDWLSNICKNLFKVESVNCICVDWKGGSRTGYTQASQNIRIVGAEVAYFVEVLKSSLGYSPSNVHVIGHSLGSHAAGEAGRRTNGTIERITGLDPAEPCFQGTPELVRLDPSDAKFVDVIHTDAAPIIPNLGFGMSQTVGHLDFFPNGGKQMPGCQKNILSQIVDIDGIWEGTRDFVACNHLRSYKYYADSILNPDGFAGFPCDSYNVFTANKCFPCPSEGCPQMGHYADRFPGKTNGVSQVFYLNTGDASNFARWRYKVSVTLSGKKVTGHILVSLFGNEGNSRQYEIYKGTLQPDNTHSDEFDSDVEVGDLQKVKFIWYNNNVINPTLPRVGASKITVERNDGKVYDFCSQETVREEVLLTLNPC
Procedure: The mixedsolution that composed of […] of 0.1mM 4-MU oleate, […] of the above-mentioned buffer and […] of test samples was prepared before adding lipase. The enzymatic reaction was started by adding 0.05mL of 1 U/mL pancreatic lipase and incubation was carried out for 20 min at 37 °C. The amount of 4-methylumbelliferon released by the enzyme was monitored at an emission of 450 nm and excitation wavelength of 320 nm using a fluorescence spectrophotometer.

SMILES | IC50 [µM] | Ki [µM]
COc1cc(CCc2ccccc2O)cc(OC)c1 [3,5-Dimethoxy-2'hydroxybibenzyl (7)] | 44.1 | 9.28
COc1cc(/C=C/C(=O)OCCc2ccc(O)cc2)ccc1O [p-hydroxyphenethyl trans-ferulate] | > 50 | –
COc1cc(O)cc2c1-c1c(O)cccc1CC2 [Hircinol (13)] | 40.6 | 8.57
COc1cc(/C=C/C=C/C(=O)CCc2ccc(O)cc2)ccc1O [(4E,6E)-7-(4-hydroxy-3-methoxyphenyl)-1-(4-hydroxyphenyl)-4,6-heptadien-3-one (21)] | 11.1 | 2.17
COc1cc(CCc2ccccc2)cc(OC)c1 [3,5-Dimethoxybibenzyl (8)] | > 50 | –
COc1cc(CCc2cc(O)cc(O)c2)ccc1O [Tristin (1)] | 13.5 | 2.75
Oc1ccc(CC[C@@H](O)C[C@H](O)CCc2ccc(O)cc2)cc1 [(3R,5R)-3,5-dihydroxy-1,7-bis(4-hydroxyphenyl)-3,5-heptanediol (22)] | > 50 | –
COc1cc(O)c2c(c1)CCc1cc(O)ccc1-2 [2,5-Dihydroxy-7-methoxy-9,10-dihydrophenanthrene (14)] | 25.1 | 4.96
COc1cc(CC[C@@H](O)C[C@H](O)CCc2ccc(O)c(OC)c2)ccc1O [(3R,5R)-1,7-bis(4-hydroxy-3-methoxyphenyl)-3,5-heptanediol] | > 50 | –
COc1cc2c(ccc3cc(O)cc(OC)c32)cc1O [3,5-Dimethoxy-2,7-phenanthrenediol (11)] | 12.7 | 2.67

Second part, the compound after the results:

IC50 [µM] | Ki [µM] | SMILES
8.77 | 1.82 | COc1c(O)cccc1CCc1cc(O)cc(O)c1 [3,3',5-Trihydroxy-2'-methoxybibenzyl (3)]
34.8 | 7.49 | O=C(/C=C/c1ccc(O)cc1)OCCc1ccc(O)cc1
45.7 | 9.66 | COc1cc(CCc2ccccc2O)cc(OC)c1OC [Batatasin V (10)]
30.1 | 6.28 | COc1cc(O)cc(CCc2ccccc2O)c1 [2-(3-hydroxy-5-methoxyphenethyl)phenol]
> 50 | – | COc1cc(O)cc2c1OCCc1ccccc1-2 [9,10-Dihydro-4-methoxy-dibenzoxepin-2-ol (16)]
> 50 | – | COc1cc(CCc2ccccc2O)cc(O)c1OC [3,4-Dimethoxy-2',5-dihydroxybibenzyl (9)]
9.12 | 1.92 | O=C(/C=C/C=C/c1ccc(O)cc1)CCc1ccc(O)cc1 [(4E,6E)-1,7-bis(4-hydroxyphenyl)-4,6-heptadien-3-one (20)]
> 50 | – | COc1cc(OC)c2c(ccc3cc(OC)c(O)cc32)c1 [Batatasin I (12)]
32.3 | 6.79 | COc1cc(O)cc(CCc2cccc(O)c2)c1 [Batatasin III (4)]
> 50 | – | Oc1cc(O)c2c(c1)-c1ccccc1CCO2 [9,10-Dihydro-dibenzoxepin-2,4-diol (15)]
16.4 | 3.34 | O=C(/C=C/C=C/c1ccc(O)cc1)/C=C/c1ccc(O)cc1 [(1E,4E,6E)-1,7-bis(4-hydroxyphenyl)-1,4,6-heptatrien-3-one (19)]
29.2 | 6.45 | Oc1cc(O)cc(CCc2ccccc2O)c1 [2',3,5-Trihydroxybibenzyl (2)]
